Reference: patent publication US20210317111A1, “NOVEL MEDICAMENT FOR TREATING INFLAMMATORY BOWEL DISEASE” (OTSUKA PHARMACEUTICAL CO., LTD., priority 2018, published 2021)
≈ marks a conversion by molar mass, not a printed value.

What was measured:
TNF-α production = test: inhibition of LPS-induced TNF-α production in human peripheral blood (ELISA); type: cell-based; details: human peripheral blood, 24 hours; for inhibitory activity for TNF-α production over concentration range: 1, 3, 10, 30, 100 μM
Experimental: The LPS solution which was adjusted to 2 μg/mL with RPMI 1640 medium was added to 48-well plate in the amount of 250 μL/well. The each diluted solution of each test compound and the diluted solution of the solvent control were added to 3 wells for each concentration in the amount of 50 μL/well, 4-fold diluted solution of human peripheral blood was added to each well (200 μL/well), and the wells were incubated at 37° C. in 5% CO2 for 24 hours. As LPS (−) control, RPMI 1640 medium without added LPS was prepared in the same manner. The final concentrations of each test sample were adjusted to 0, 1, 3, 10, 30, and 100 μM, and the final concentration of prednisolone was adjusted to 0.3 μM. 24 hours later from the incubation, each supernatant was collected and stored at −80° C. until the measurement of the TNF-α concentration.
The TNF-α concentration was measured by ELISA with Human TNF-alpha Quantikine ELISA Kit (R & D Systems). Each sample was unfrozen at room temperature, and diluted with Calibrator Diluent RD6-35 (1×) of the kit by 10-fold. The 10-fold diluted supernatant and the TNF-α standard solution were added on TNF-α microplate, and reacted according to the operating manual of the kit. After the coloring, the absorbance at wave length of 450 nm was measured with a microplate reader (Multiskan FC; Thermo Fisher […]), and the calibration curve was prepared with an analysis software (Skanit Software 3.1.0.4 RE for Multiskan FC (ja)) to read the TNF-α concentration of each sample. Calibration curve used a 4-parameter logistic curve.
The inhibition rates were presented as the mean±standard deviation using Microsoft Excel 2010. For each blood donor, the TNF-α production rate under each compound concentration was calculated with the TNF-α concentration in the supernatant of the solvent group as 100%.
The results are averages of the measurements obtained from the human peripheral blood of three volunteers.

[1] = system: Mycobacterium avium subspecies paratuberculosis (MAP); test: antibacterial activity (MIC), broth microdilution method; type: cell-based; details: 336 h
Experimental: The chronic enterocolitis of ruminants which is caused by Mycobacterium avium subspecies paratuberculosis (MAP) is similar to Crohn's disease. […] Thus, the antibacterial activity of the present compound against MAP was evaluated. The used comparative drugs for the present compound were rifaximin (RFX), ciprofloxacin (CPFX), metronidazole (MTZ), clarithromycin (CAM), rifabutin (RBT), and clofazimine (CFZ).
The antibacterial activity (minimum inhibitory concentration (MIC)) was assayed by broth microdilution method which is based on Clinical and laboratory standards institute (CLSI).
The 5 strains of MAP were inoculated onto Middlebrook 7H9 agar containing 10% dubos oleic albumin complex (OADC), Tween 80 (0.5 g/L), mycobactin J (2 mg/L), and 1.5% agar, and pre-cultured at 37° C. under an aerobic condition for 14 days. After the pre-culture, the bacterial cell was scraped out from the agar, and prepared to the turbidity of 0.5 Mcfarland standard using Middlebrook 7H9 broth containing 10% dubos oleic albumin complex (OADC), Tween 80 (0.5 g/L), and mycobactin J (2 mg/L)]. The 10-fold diluted solution of the bacterial suspension was inoculated onto Middlebrook 7H9 broth 96-well plate which contains the present compound or any one of the comparative drugs, and incubated at 37° C. under an aerobic condition for 14 days.
After the incubation, the bacterial growth in each well of the 96-well plate was visually checked. The minimum concentration at which the bacterial growth was not observed, compared with the result of the well containing neither present compound nor comparative drug was determined as MIC of the present compound or each comparative drug against each test bacterium.

Fusobacterium spp. = test: antibacterial activity (MIC), agar plate dilution method; type: cell-based; details: 17 strains of Fusobacterium spp.; anaerobic, 37° C.
Experimental: There are plural reports about the relationship between intestinal bacteria and inflammatory bowel disease, and it is thought that Fusobacterium spp., one of the intestinal bacteria is a pathogenic bacteria causing inflammatory bowel disease. […] The antibacterial activity (minimum inhibitory concentration (MIC)) was assayed by agar plate dilution method which is based on Clinical and laboratory standards institute (CLSI). The medium used herein was Brucella medium with sheep blood. […] The bacterial suspension was inoculated onto Brucella agar with sheep blood which contains the present compound or any one of the comparative drugs, and incubated at 37° C. under an anaerobic condition.

[2] = system: naive T cell transfer model of colitis; test: naive T cell transfer model of colitis (Crohn's disease mouse model), histological scoring of large intestine; type: in vivo; details: from 2nd week after transplantation for 2 weeks; present compound, CPFX, RFX oral once a day 10 mg/kg; antibody 25 mg/kg i.p. twice a week; 4th week
Description: From spleen of Balb/c mouse, naive T cell (CD4+CD62L+CD44−) was isolated with antibody-coated magnetic beads. The isolated naive T cell (5×10^5 cells/mouse) was transplanted in abdominal cavity of SCID mouse which is a severe combined immunodeficiency animal. The present compound was orally administered to the mouse once a day at each dose defined in Table 1 below, from the first day of the transplantation for Test 1, or from the 2nd week after the transplantation for Test 2, until 5 weeks after the transplantation. [table] […] The anti-TNF-α antibody was intraperitoneally administered to the mouse twice a week at each dose defined in Table 2 below, from the 2nd week after the transplantation, for 2 weeks. [table] At 5th week for Tests 1 and 2, and at 4th week for Test 3, the large intestine was removed, and the length and weight of the large intestine were measured. In addition, the large intestine was fixed with formalin to carry out pathological analysis. From the removed large intestine, the anus part, the center part, and the cecal part were cut out each in about 0.5 cm, and each part was fixed with formalin. The paraffin block thereof was prepared, sliced, and subjected to H&E staining. The H&E stained slice was examined with a microscope to score it histologically. The histological scoring was carried out by scoring the inflammatory cell infiltrate, the Goblet cell loss, and the hyperplasia of mucosal epithelium, based on the standard (0-4) defined in Table 3 below. [table]

DSS-induced colitis = DSS-induced colitis model, stool scores; type: in vivo, rat
Description: A colitis model induced by dextran sulfate sodium (DSS) is widely used as an experimental ulcerative colitis model having similarities of human ulcerative colitis regarding suppression of weight gain, colitis symptoms such as bloody stools and diarrhea, and injury formation in the large intestine. The effect of the present compound on the ulcerative colitis model was examined, and it was compared with salazosulfapyridine (SASP) clinically used as a therapeutic agent for ulcerative colitis.
Symptoms of colitis were induced by allowing rats to freely drink 3% dextran sulfate sodium (DSS) solution for 10 days. […] For the observation of stool symptoms, the degree of stool condition was scored as the score of stool firmness (Stool Consistency Score: 0, 1, 2, 3) and blood stool (Bloody Stool Score: 0, 1, 2, 3). The total of Stool Consistency Score and Bloody Stool Score was taken as the Total Stool Score. Each group was composed of 8 animals. Salazosulfapyridine (SASP), which is an already-existing drug for treating inflammatory bowel disease, the present compound or the vehicle were administrated for 10 days from the start date of 3% DSS freely drinking.

TNBS-induced enteritis = TNBS-induced enteritis model; type: in vivo, rat; details: 100 mg/kg orally twice a day; 12 rats per group
Experimental: An enteritis animal model induced with 2,4,6-trinitrobenzenesulfonic acid (TNBS) is widely used as Crohn's disease model since the inflammatory finding is pathologically similar to that of human Crohn's disease. In addition, the enteritis model was used in the non-clinical study of mesalazine that is a medicament for treating Crohn's disease. Thus, this enteritis model was used as Crohn's disease model for evaluating the present compound.
Rats were made to be fasted for 24 or 48 hours, and the body weight were measured. The rats were laparotomized under isoflurane anesthesia, and 50% ethanol (0.25 mL) containing 60 mg/mL 2,4,6-trinitrobenzenesulfonic acid (TNBS) was injected into the large intestine from the cecum side toward the anal side to induce the injury. Each group composed of 12 rats was set, and vehicle, the present compound, or salazosulfapyridine (SASP) which is an already-existing drug for treating inflammatory bowel disease were administered for 7 days from the first day after the injection of TNBS. On the 8th day, each rat was laparotomized under anesthesia and killed by exsanguination. The large intestine was removed from the anus to the cecum, the large intestine was longitudinally incised, and the incised large intestine was washed with a cold saline. The lesion area of the large intestine was photographed with a digital camera. The area of the lesion area in the photograph of the large intestine was measured using image analyzing program.
Each compound was orally administered at a dose of 100 mg/kg twice a day from one day after inducing enteritis with TNBS. Each area of the lesion area on the 8th day was compared.

[3] = 11th day, present compound 1, 3, 10 mg/kg (P<0.01) or SASP 100 mg/kg (P<0.05) orally twice a day, Dunnett's test

For `Nc1ccc(O)c(C(=O)O)c1` [5-ASA, 5-aminosalicylic acid], the “inhibitory activity for TNF-α production over concentration range” value (TNF-α production) was “no inhibitory activity”.

With `CC[C@H]1OC(=O)[C@H](C)[C@@H](O[C@H]2C[C@@](C)(OC)[C@@H](O)[C@H](C)O2)[C@H](C)[C@@H](O[C@@H]2O[C@H](C)C[C@H](N(C)C)[C@H]2O)[C@](C)(OC)C[C@@H](C)C(=O)[C@H](C)[C@@H](O)[C@]1(C)O` [CAM, clarithromycin] the MIC [1] was 0.12 to 0.25 µg/mL (≈ 0.16 to 0.334 µM).

Work on `CC(C)/N=c1\cc2n(-c3ccc(Cl)cc3)c3ccccc3nc-2cc1Nc1ccc(Cl)cc1` [CFZ, clofazimine] yielded an MIC [1] of 0.12 to 0.5 µg/mL (≈ 0.253 to 1.06 µM).

For `O=C(O)c1cn(C2CC2)c2cc(N3CCNCC3)c(F)cc2c1=O` [CPFX, ciprofloxacin], the inhibition at 100 µM (TNF-α production; 100 μM, read-out: inhibitory effect on TNF-α production at 100 μM) was less than 50%, the “inhibitory activity for TNF-α production over concentration range” value (TNF-α production) was “dose-dependent inhibitory effect at a concentration of 30 μM or more” and the MIC (Fusobacterium spp.) was 2 to 8 µg/mL (≈ 6.04 to 24.1 µM). The “histological score (Test 3, comparative study)” value [2] was “little or no inhibitory effect” and the MIC [1] was 0.25 to 0.5 µg/mL (≈ 0.754 to 1.51 µM).

For `Cc1ncc([N+](=O)[O-])n1CCO` [MTZ, metronidazole], the MIC (Fusobacterium spp.) was 0.03 to 0.5 µg/mL (≈ 0.175 to 2.92 µM) and the MIC [1] was greater than 128 µg/mL.

With `CO[C@H]1/C=C/O[C@@]2(C)Oc3c(C)c(O)c4c(c3C2=O)C2=NC3(CCN(CC(C)C)CC3)NC2=C(NC(=O)/C(C)=C\C=C\[C@H](C)[C@H](O)[C@@H](C)[C@@H](O)[C@@H](C)[C@H](OC(C)=O)[C@@H]1C)C4=O` [RBT, rifabutin] the MIC [1] was 0.25 to 1 µg/mL (≈ 0.295 to 1.18 µM).

With `CO[C@H]1/C=C/O[C@@]2(C)Oc3c(C)c(O)c4c(O)c(c5c(nc6cc(C)ccn65)c4c3C2=O)NC(=O)/C(C)=C\C=C\[C@H](C)[C@H](O)[C@@H](C)[C@@H](O)[C@@H](C)[C@H](OC(C)=O)[C@@H]1C` [RFX, rifaximin] the “inhibitory activity for TNF-α production over concentration range” value (TNF-α production) was “no inhibitory activity”, the “histological score (Test 3, comparative study)” value [2] was “little or no inhibitory effect” and the MIC [1] was 1 to 2 µg/mL (≈ 1.27 to 2.54 µM).

For `O=C(O)c1cc(/N=N/c2ccc(S(=O)(=O)Nc3ccccn3)cc2)ccc1O` [SASP, salazosulfapyridine, reference compound], the “day from which suppression of stool score deterioration was observed” value (DSS-induced colitis; 100 mg/kg orally twice a day) was “from the 9th day”, the deaths (DSS-induced colitis; 100 mg/kg orally twice a day, 8 animals per group) was 2 and the “bloody stool score vs vehicle control” value (DSS-induced colitis; 11th day, present compound 1 mg/kg (P<0.05), 3, 10 mg/kg (P<0.01) or SASP 100 mg/kg orally twice a day, Dunnett's test) was “not significant”. For the same compound, the “stool firmness (Stool Consistency Score) vs vehicle control” value (DSS-induced colitis; [3]) was “significant differences”, the “total stool score vs vehicle control” value (DSS-induced colitis; [3]) was “significant differences” and the “number of death during the treatment” value (TNBS-induced enteritis) was “two”.
